Entries after “also recorded” stand apart in the source; their conditions may differ.
Key:
[1] = tested on: Human epidermal keratinocyte cells (HaCaT); assay: MTT assay, cell viability of HaCaT keratinocytes; format: cell-based; conditions: versus control without DMG, FIG. 1
Description: (§1) 1. As part of an in vitro study, the effect of Na-dimethylglycinate was examined in a cell culture model with human horn-forming keratinocyte cells. For this purpose, HaCaT cells were cultured for 1, 3, 5, and 7 days in DMEM medium (including fetal calf serum and an anti biotic-anti mycotic mix) and, among other things, the viability and proliferation of the cells were determined using suitable measurement methods, and the expression of the growth factors relevant for cell growth was measured.
For this measurement, a so-called MTT assay was used to determine cellular metabolic activity as an indicator of cell viability and cytotoxicity. This colorimetric assay is based on the reduction of a yellow tetrazolium salt (3-(4,5-dimethylthiazol-2-yl)-2,5-diphenyltetrazolium bromide or MTT) to purple formazan crystals by metabolically active cells.
Human epidermal keratinocyte cells (HaCaT) were seeded in a 96-well plate at a cell density of 5,000 cells/well and cultured in medium (DMEM with 10% FBS, 1% penicillin-streptomycin, 0.5% fungizone). […]
Cell viability was determined using the MTT assay. The absorption was measured in quadruplicate and normalized to the control at 24 hours. […]

[2] = tested on: Human epidermal keratinocyte cells (HaCaT); assay: CyQUANT assay, cell proliferation of HaCaT keratinocytes; format: cell-based; conditions: versus control without DMG, FIG. 2
Description: as §1
A so-called CyQUANT assay was carried out to measure the proliferation. In this fluorescence-based assay, the fluorescent dye used binds to DNA (deoxyribonucleic acid), with the content of cellular DNA being a direct measure of the number of cells in a sample.
Human epidermal keratinocyte cells (HaCaT) were seeded in a 96-well plate at a cell density of 5,000 cells/well and cultured in medium (DMEM with 10% FBS, 1% penicillin-streptomycin, 0.5% fungizone). The next day and after a further 24 h as well as 48 h and 72 h of cultivation at 37° C. and 5% by volume CO2, the cell culture medium without (control) or with the active ingredient concentrations already present was changed. […]
The cell proliferation was determined using the CyQUANT assay. The fluorescence was measured in triplicate and normalized to the control at 24 hours. […]

VEGF = assay: Gene expression of VEGF by qRT-PCR in HaCaT cells; format: cell-based, human; conditions: after 24 hours of cultivation, versus control without DMG, FIG. 3
Description: VEGF (Vascular Endothelial Growth Factor) promotes the growth and formation of new blood and lymphatic vessels. Gene expression was measured using a standard method known as quantitative real-time PCR (qRT-PCR).
Human epidermal keratinocyte cells (HaCaT) were seeded in a 6-well plate at a cell density of 140,000 cells/well and cultured in medium (DMEM with 10% FBS, 1% penicillin-streptomycin, 0.5% fungizone) at 37° C. und 5% by volume CO2. The next day, the cell culture medium without (control) or with the active substance concentrations already present in each case was changed, and the cells were harvested after 24 hours. Gene expression was measured using qRT-PCR based on studies already published in B. V. Diaz, M.-C. Lenoir, A. Ladoux, C. Frelin, M. Demarchez, S. Michel, Journal of Biological Chemistry 2000, 275, 642-650.
The relative gene expression determined by qRT-PCR (triple determination, normalized to the respective gene expression of a constitutively expressed gene; GAPDH—glyceraldehyde-3-phosphate dehydrogenase) of VEGF is shown. Shown is the mean value with standard deviation.

CN(C)CC(=O)[O-].[Na+] [DMG, sodium dimethylglycinate]
cell viability (MTT absorption normalized to the control at 24 hours) ([1]; after 48 h of cultivation): clear increase
cell viability (MTT absorption normalized to the control at 24 hours) ([1]; after 72 h of cultivation): clear increase
cell proliferation (CyQUANT fluorescence normalized to the control at 24 hours) ([2]; after 48 h of cultivation): clear increase
cell proliferation (CyQUANT fluorescence normalized to the control at 24 hours) ([2]; after 72 h of cultivation): clear increase
relative gene expression of VEGF (normalized to GAPDH) (VEGF): significant increase; also recorded: significantly increased
